In patent publication US10450270B2, “Glyoxamide substituted pyrrolamide derivatives and the use thereof as medicaments for the treatment of hepatitis B” (Janssen Sciences Ireland UC, priority 2013, dated 2019):

Columns and labels:
[1] = tested on: HBV; test: Anti-HBV activity, HepG2.117 inducible HBV producing cell line (Tet-off), intracellular HBV DNA by realtime PCR; format: cell-based; conditions: Hepatitis B virus, 72 h; HepG2.117 cells, 3 days of treatment, intracellular HBV DNA; read-out: HepG2 117 EC50
[2] = Cytotoxicity in HepG2 cells, Resazurin viability assay; conditions: human, HepG2 cells

SMILES	EC50 [1] [nM]	CC50 at 4 days [2] [nM]
Cc1c(C(=O)C(=O)NC(C)C(C)(C)O)cc(C(=O)Nc2ccc(F)c(C#N)c2)n1C (centres unmarked) [Compound 72, N-(3-cyano-4-fluoro-phenyl)-4-[2-[(2-hydroxy-1,2-dimethyl-propyl)amino]-2-oxo-acetyl]-1,5-dimethyl-pyrrole-2-carboxamide]	18	> 25000
Cn1c(Cl)c(C(=O)C(=O)NC2(C(F)(F)F)CCC2)c(F)c1C(=O)Nc1ccc(F)c(C#N)c1 [Compound 90, 5-chloro-N-(3-cyano-4-fluoro-phenyl)-3-fluoro-1-methyl-4-[2-oxo-2-[[1-(trifluoromethyl)cyclobutyl]amino]acetyl]pyrrole-2-carboxamide]	32	> 25000
Cc1c(C(=O)C(=O)N[C@H]2[C@H](C)CC[C@H]2O)cc(C(=O)Nc2ccc(F)c(C#N)c2)n1C [Compound 66, N-(3-cyano-4-fluoro-phenyl)-4-[2-[[(1S,2R,5R)-2-hydroxy-5-methyl-cyclopentyl]amino]-2-oxo-acetyl]-1,5-dimethyl-pyrrole-2-carboxamide]	110	> 25000
Cc1c(C(=O)C(=O)NC(C)(C)C(F)(F)F)cc(C(=O)Nc2ccc(F)c(C#N)c2)n1C [Compound 58, N-(3-cyano-4-fluoro-phenyl)-1,5-dimethyl-4-[2-oxo-2-[(2,2,2-trifluoro-1,1-dimethyl-ethyl)amino]acetyl]pyrrole-2-carboxamide]	6	> 25000
CC[C@@H](C)NC(=O)C(=O)c1cc(C(=O)Nc2ccc(F)c(C#N)c2)n(C)c1C [Compound 53, N-(3-cyano-4-fluoro-phenyl)-1,5-dimethyl-4-[2-[[(1R)-1-methylpropyl]-amino]-2-oxo-acetyl]pyrrole-2-carboxamide]	39	> 25000
Cc1c(C(=O)C(=O)NC(C)C)c(Cl)c(C(=O)Nc2ccc(F)c(C#N)c2)n1C [Compound 45, 3-chloro-N-(3-cyano-4-fluoro-phenyl)-4-[2-(isopropylamino)-2-oxo-acetyl]-1,5-dimethyl-pyrrole-2-carboxamide]	6	> 25000
COCC(C)(NC(=O)C(=O)c1cc(C(=O)Nc2ccc(F)c(C#N)c2)n(C)c1C)C(F)(F)F (centres unmarked) [Compound 80, N-(3-cyano-4-fluoro-phenyl)-1,5-dimethyl-4-[2-oxo-2-[[2,2,2-trifluoro-1-(methoxymethyl)-1-methyl-ethyl]amino]acetyl]pyrrole-2-carboxamide]	7	> 25000
CCCC[C@@H](CO)NC(=O)C(=O)c1cc(C(=O)Nc2ccc(F)c(C#N)c2)n(C)c1C [Compound 63, N-(3-cyano-4-fluoro-phenyl)-4-[2-[[(1S)-1-(hydroxymethyl)pentyl]amino]-2-oxo-acetyl]-1,5-dimethyl-pyrrole-2-carboxamide]	210	> 25000
Cn1cc(C(=O)C(=O)NC2(C)CC(F)(F)C2)c(Cl)c1C(=O)Nc1ccc(F)c(C#N)c1 [Compound 40, 3-chloro-N-(3-cyano-4-fluoro-phenyl)-4-[2-[(3,3-difluoro-1-methyl-cyclobutyl)amino]-2-oxo-acetyl]-1-methyl-pyrrole-2-carboxamide]	7	> 25000
C[C@@H](NC(=O)C(=O)c1cc(C(=O)Nc2ccc(F)c(C#N)c2)n(C)c1Br)C(F)(F)F [Compound 25, 5-bromo-N-(3-cyano-4-fluoro-phenyl)-1-methyl-4-[2-oxo-2-[[(1R)-2,2,2-trifluoro-1-methyl-ethyl]amino]acetyl]pyrrole-2-carboxamide]	> 1000	> 25000
Cc1c(C(=O)C(=O)N[C@H]2CCC[C@@H]2O)cc(C(=O)Nc2ccc(F)c(C#N)c2)n1C [Compound 65, N-(3-cyano-4-fluoro-phenyl)-4-[2-[[(1S,2S)-2-hydroxycyclopentyl]amino]-2-oxo-acetyl]-1,5-dimethyl-pyrrole-2-carboxamide]	160	> 25000
CCCC[C@H](CO)NC(=O)C(=O)c1cc(C(=O)Nc2ccc(F)c(C#N)c2)n(C)c1C [Compound 75, N-(3-cyano-4-fluoro-phenyl)-4-[2-[[(1R)-1-(hydroxymethyl)pentyl]amino]-2-oxo-acetyl]-1,5-dimethyl-pyrrole-2-carboxamide]	14	> 25000
C[C@@H](NC(=O)C(=O)c1c(Br)c(C(=O)Nc2ccc(F)c(C#N)c2)n(C)c1Br)C(F)(F)F [Compound 27, 3,5-dibromo-N-(3-cyano-4-fluoro-phenyl)-1-methyl-4-[2-oxo-2-[[(1R)-2,2,2-trifluoro-1-methyl-ethyl]amino]acetyl]pyrrole-2-carboxamide]	5	> 25000
Cc1c(C(=O)C(=O)NC2(C)CC(F)(F)C2)c(Cl)c(C(=O)Nc2ccc(F)c(C#N)c2)n1C [Compound 47, 3-chloro-N-(3-cyano-4-fluoro-phenyl)-4-[2-[(3,3-difluoro-1-methyl-cyclo-butyl)amino]-2-oxo-acetyl]-1,5-dimethyl-pyrrole-2-carboxamide]	< 4	> 25000
C[C@H](CO)NC(=O)C(=O)c1cn(C)c(C(=O)Nc2ccc(F)c(C#N)c2)c1F [Compound 95, N-(3-cyano-4-fluoro-phenyl)-3-fluoro-4-[2-[[(1R)-2-hydroxy-1-methyl-ethyl]amino]-2-oxo-acetyl]-1-methyl-pyrrole-2-carboxamide]	65	> 25000
Cc1c(C(=O)C(=O)NC(C)(CO)C2CC2)cc(C(=O)Nc2ccc(F)c(C#N)c2)n1C (centres unmarked) [Compound 77, N-(3-cyano-4-fluoro-phenyl)-4-[2-[(1-cyclopropyl-2-hydroxy-1-methyl-ethyl)amino]-2-oxo-acetyl]-1,5-dimethyl-pyrrole-2-carboxamide]	12	> 25000
Cn1cc(C(=O)C(=O)NC(C)(C)C)c(F)c1C(=O)Nc1ccc(F)c(C#N)c1 [Compound 34, 4-[2-(tert-butylamino)-2-oxo-acetyl]-N-(3-cyano-4-fluoro-phenyl)-3-fluoro-1-methyl-pyrrole-2-carboxamide]	9	> 25000
Cn1c(C(=O)Nc2ccc(F)c(C#N)c2)c(Cl)c(C(=O)C(=O)NC(C)(C)C)c1C1CC1 [Compound 48, 4-[2-(tert-butylamino)-2-oxo-acetyl]-3-chloro-N-(3-cyano-4-fluoro-phenyl)-5-cyclopropyl-1-methyl-pyrrole-2-carboxamide]	22	> 25000
Cc1c(C(=O)C(=O)NC2(C(F)(F)F)CC2)cc(C(=O)Nc2ccc(F)c(C#N)c2)n1C [Compound 57, N-(3-cyano-4-fluoro-phenyl)-1,5-dimethyl-4-[2-oxo-2-[[1-(trifluoromethyl)-cyclopropyl]amino]acetyl]pyrrole-2-carboxamide]	6	> 25000
Cn1cc(C(=O)C(=O)NC2(C(F)(F)F)CCOC2)c(F)c1C(=O)Nc1ccc(F)c(C#N)c1 (centres unmarked) [Compound 83, N-(3-cyano-4-fluoro-phenyl)-3-fluoro-1-methyl-4-[2-oxo-2-[[3-(trifluoro-methyl)tetrahydrofuran-3-yl]amino]acetyl]pyrrole-2-carboxamide]	6	11800
Cc1c(C(=O)C(=O)N[C@H](C)C(C)(F)F)cc(C(=O)Nc2ccc(F)c(C#N)c2)n1C [Compound 54, N-(3-cyano-4-fluoro-phenyl)-4-[2-[[(1R)-2,2-difluoro-1-methyl-propyl]-amino]-2-oxo-acetyl]-1,5-dimethyl-pyrrole-2-carboxamide]	10	> 25000
COCC(C)(C)NC(=O)C(=O)c1cn(C)c(C(=O)Nc2ccc(F)c(C#N)c2)c1F [Compound 96, N-(3-cyano-4-fluoro-phenyl)-3-fluoro-4-[2-[(2-methoxy-1,1-dimethyl-ethyl)amino]-2-oxo-acetyl]-1-methyl-pyrrole-2-carboxamide]	6	> 25000
Cn1c(Cl)c(C(=O)C(=O)NC2(C(F)(F)F)CCOC2)c(F)c1C(=O)Nc1ccc(F)c(C#N)c1 (centres unmarked) [Compound 89, 5-chloro-N-(3-cyano-4-fluoro-phenyl)-3-fluoro-1-methyl-4-[2-oxo-2-[[3-(trifluoromethyl)tetrahydrofuran-3-yl]amino]acetyl]pyrrole-2-carboxamide]	8	> 25000
Cc1c(C(=O)C(=O)NC2(C)CC(F)(F)C2)c(F)c(C(=O)Nc2ccc(F)c(C#N)c2)n1C [Compound 37, N-(3-cyano-4-fluoro-phenyl)-4-[2-[(3,3-difluoro-1-methyl-cyclobutyl)-amino]-2-oxo-acetyl]-3-fluoro-1,5-dimethyl-pyrrole-2-carboxamide]	2	> 25000
Cc1c(C(=O)C(=O)NC(C)(C)CO)cc(C(=O)Nc2ccc(F)c(C#N)c2)n1C [Compound 94, N-(3-cyano-4-fluoro-phenyl)-4-[2-[(2-hydroxy-1,1-dimethyl-ethyl)amino]-2-oxo-acetyl]-1,5-dimethyl-pyrrole-2-carboxamide]	4	> 25000
Cn1c(C(=O)Nc2ccc(F)c(C#N)c2)c(Cl)c(C(=O)C(=O)NC(C)(C)C)c1C(F)(F)F [Compound 33, 4-[2-(tert-butylamino)-2-oxo-acetyl]-3-chloro-N-(3-cyano-4-fluoro-phenyl)-1-methyl-5-(trifluoromethyl)pyrrole-2-carboxamide]	247	> 25000
CCC(C)(CO)NC(=O)C(=O)c1cc(C(=O)Nc2ccc(F)c(C#N)c2)n(C)c1C (centres unmarked) [Compound 76, N-(3-cyano-4-fluoro-phenyl)-4-[2-[[1-(hydroxymethyl)-1-methyl-propyl]-amino]-2-oxo-acetyl]-1,5-dimethyl-pyrrole-2-carboxamide]	13	> 25000
Cn1cc(C(=O)C(=O)NC2(C(F)(F)F)CCC2)c(F)c1C(=O)Nc1ccc(F)c(C#N)c1 [Compound 84, N-(3-cyano-4-fluoro-phenyl)-3-fluoro-1-methyl-4-[2-oxo-2-[[1-(trifluoro-methyl)cyclobutyl]amino]acetyl]pyrrole-2-carboxamide]	3	21900
